{"source": "patent US5817692A", "about": "“Endoperoxides useful as antiparasitic agents” (priority 1996, dated 1998)", "key": {"[1]": {"tested_on": "L929 cells", "assay": "cytotoxicity to L929 cells, MTT assay (viability and replication)", "format": "cell-based", "set-up": "Toxicity, Mean: unit not given here", "details": "L929 cells; for Toxicity, Mean: MTT; for inhibition at 0.1 µM / inhibition at 1 µM / inhibition at 10 µM / inhibition at 50 µM: Mus musculus, read-out: Toxicity, % of control (inhibition)", "experimental": "Toxoplasma gondii is the causative agent of cerebral toxoplasmic encephalitis, an AIDS-related opportunistic infection. The biological activity of the endoperoxide JHU 2886 of the present invention was measured against Toxoplasma gondii cultured in L929 cells.\nMore specifically, the cytotoxicity of synthetic organic endoperoxide JHU 2886 was tested in L929 cells by measuring the viability and replication of exposed cells. The cytotoxicity of the compound to the cultured cells was measured using the MTT assay (Promega kit), according to the procedure of Carmichael et al. (18). MTT is an abbreviation for [3-(4,5-dimethylthiazol-2-yl)-2,5-dephenyltetrazolium bromide].\nThis compound is referred to as JHU 2886 in Table 1. In this experiment atovaquone and artemisinin were used as positive controls. Atovaquone is a broad-spectrum anti-infective drug having antimalarial and antitoxoplasmosis activity (19).\n^1 The cytotoxicity of each compound for the cultured cells was\nmeasured using the MTT assay (Promega kit) and inhibition of the […]"}, "[2]": {"tested_on": "Toxoplasma gondii", "assay": "inhibition of intracellular replication of T. gondii in infected L929 cells, uracil incorporation assay", "format": "cell-based", "set-up": "Activity, Mean: unit not given here", "details": "for Activity, Mean: uracil incorporation; for inhibition at 0.1 µM / inhibition at 1 µM / inhibition at 10 µM / inhibition at 50 µM: Toxoplasma gondii, L929, read-out: Activity, % of control (inhibition)", "experimental": "Toxoplasma gondii is the causative agent of cerebral toxoplasmic encephalitis, an AIDS-related opportunistic infection. The biological activity of the endoperoxide JHU 2886 of the present invention was measured against Toxoplasma gondii cultured in L929 cells. The inhibitory activity of the synthetic organic endoperoxide was tested by measuring the intracellular replication of T. gondii in infected L929 cells. The inhibition of the intracellular replication of T. gondii was determined using the uracil incorporation assay (20). […] This compound is referred to as JHU 2886 in Table 1. In this experiment atovaquone and artemisinin were used as positive controls. Atovaquone is a broad-spectrum anti-infective drug having antimalarial and antitoxoplasmosis activity (19). | measured using the MTT assay (Promega kit) and inhibition of the | intracellular replication of T. gondii was determined using the uracil | incorporation assay."}}, "note": "Where two headings read alike, the source gives them in different places."}
{"smiles": "O=C1C(O)=C([C@H]2CC[C@H](c3ccc(Cl)cc3)CC2)C(=O)c2ccccc21", "note": "[Atovaquone]", "values": [{"measurement": "Toxicity, Score", "setting": "[1]; 24 hours, dose 0.1 μM", "result": "1 (≤20%)"}, {"measurement": "Toxicity, Mean", "setting": "[1]; 24 hours, dose 0.1 μM", "result": 0.095}, {"measurement": "Toxicity, Score", "setting": "[1]; 24 hours, dose 1.0 μM", "result": "1 (≤20%)"}, {"measurement": "Toxicity, Mean", "setting": "[1]; 24 hours, dose 1.0 μM", "result": 0.093}, {"measurement": "Toxicity, Score", "setting": "[1]; 24 hours, dose 10.0 μM", "result": "1 (≤20%)"}, {"measurement": "Toxicity, Mean", "setting": "[1]; 24 hours, dose 10.0 μM", "result": 0.092}, {"measurement": "Toxicity, Score", "setting": "[1]; 24 hours, dose 50.0 μM", "result": "2 (>20%-≤40%)"}, {"measurement": "Toxicity, Mean", "setting": "[1]; 24 hours, dose 50.0 μM", "result": 0.089}, {"measurement": "Toxicity, Score", "setting": "[1]; 48 hours, dose 0.1 μM", "result": 0}, {"measurement": "Toxicity, Mean", "setting": "[1]; 48 hours, dose 0.1 μM", "result": 0.214}, {"measurement": "Toxicity, Score", "setting": "[1]; 48 hours, dose 1.0 μM", "result": "1 (≤20%)"}, {"measurement": "Toxicity, Mean", "setting": "[1]; 48 hours, dose 1.0 μM", "result": 0.211}, {"measurement": "Toxicity, Score", "setting": "[1]; 48 hours, dose 10.0 μM", "result": "1 (≤20%)"}, {"measurement": "Toxicity, Mean", "setting": "[1]; 48 hours, dose 10.0 μM", "result": 0.204}, {"measurement": "Toxicity, Score", "setting": "[1]; 48 hours, dose 50.0 μM", "result": "3 (>40%-≤70%)"}, {"measurement": "Toxicity, Mean", "setting": "[1]; 48 hours, dose 50.0 μM", "result": 0.106}, {"measurement": "Toxicity, Score", "setting": "[1]; 72 hours, dose 0.1 μM", "result": 0}, {"measurement": "Toxicity, Mean", "setting": "[1]; 72 hours, dose 0.1 μM", "result": 0.473}, {"measurement": "Toxicity, Score", "setting": "[1]; 72 hours, dose 1.0 μM", "result": 0}, {"measurement": "Toxicity, Mean", "setting": "[1]; 72 hours, dose 1.0 μM", "result": 0.464}, {"measurement": "Toxicity, Score", "setting": "[1]; 72 hours, dose 10.0 μM", "result": 0}, {"measurement": "Toxicity, Mean", "setting": "[1]; 72 hours, dose 10.0 μM", "result": 0.456}, {"measurement": "Toxicity, Score", "setting": "[1]; 72 hours, dose 50.0 μM", "result": "3 (>40%-≤70%)"}, {"measurement": "Toxicity, Mean", "setting": "[1]; 72 hours, dose 50.0 μM", "result": 0.161}, {"measurement": "inhibition at 0.1 µM", "setting": "[1]; 24 hours, dose 0.1 μM", "result": 15.6, "unit": "%"}, {"measurement": "inhibition at 1 µM", "setting": "[1]; 24 hours, dose 1.0 μM", "result": 17.4, "unit": "%"}, {"measurement": "inhibition at 10 µM", "setting": "[1]; 24 hours, dose 10.0 μM", "result": 18.3, "unit": "%"}, {"measurement": "inhibition at 50 µM", "setting": "[1]; 24 hours, dose 50.0 μM", "result": 21.2, "unit": "%"}, {"measurement": "inhibition at 0.1 µM", "setting": "[1]; 48 hours, dose 0.1 μM", "result": 0, "unit": "%"}, {"measurement": "inhibition at 1 µM", "setting": "[1]; 48 hours, dose 1.0 μM", "result": 1.09, "unit": "%"}, {"measurement": "inhibition at 10 µM", "setting": "[1]; 48 hours, dose 10.0 μM", "result": 4.53, "unit": "%"}, {"measurement": "inhibition at 50 µM", "setting": "[1]; 48 hours, dose 50.0 μM", "result": 50.2, "unit": "%"}, {"measurement": "inhibition at 0.1 µM", "setting": "[1]; 72 hours, dose 0.1 μM", "result": 0, "unit": "%"}, {"measurement": "inhibition at 1 µM", "setting": "[1]; 72 hours, dose 1.0 μM", "result": 0, "unit": "%"}, {"measurement": "inhibition at 10 µM", "setting": "[1]; 72 hours, dose 10.0 μM", "result": 0, "unit": "%"}, {"measurement": "inhibition at 50 µM", "setting": "[1]; 72 hours, dose 50.0 μM", "result": 63.2, "unit": "%"}, {"measurement": "therapeutic index (ratio of activity to toxicity), quotient", "setting": "[2]; 1 μM, T. gondii activity / L929 toxicity", "result": 5.6}, {"measurement": "Activity, Score", "setting": "[2]; 24 hours, dose 0.1 μM", "result": "4 (>70%-≤90%)"}, {"measurement": "Activity, Mean", "setting": "[2]; 24 hours, dose 0.1 μM", "result": 3096}, {"measurement": "Activity, Score", "setting": "[2]; 24 hours, dose 1.0 μM", "result": "5 (>90%)"}, {"measurement": "Activity, Mean", "setting": "[2]; 24 hours, dose 1.0 μM", "result": 693}, {"measurement": "Activity, Score", "setting": "[2]; 24 hours, dose 10.0 μM", "result": "5 (>90%)"}, {"measurement": "Activity, Mean", "setting": "[2]; 24 hours, dose 10.0 μM", "result": 612}, {"measurement": "Activity, Score", "setting": "[2]; 24 hours, dose 50.0 μM", "result": "5 (>90%)"}, {"measurement": "Activity, Mean", "setting": "[2]; 24 hours, dose 50.0 μM", "result": 1042}, {"measurement": "Activity, Score", "setting": "[2]; 48 hours, dose 0.1 μM", "result": "3 (>40%-≤70%)"}, {"measurement": "Activity, Mean", "setting": "[2]; 48 hours, dose 0.1 μM", "result": 6865}, {"measurement": "Activity, Score", "setting": "[2]; 48 hours, dose 1.0 μM", "result": "5 (>90%)"}, {"measurement": "Activity, Mean", "setting": "[2]; 48 hours, dose 1.0 μM", "result": 729}, {"measurement": "Activity, Score", "setting": "[2]; 48 hours, dose 10.0 μM", "result": "5 (>90%)"}, {"measurement": "Activity, Mean", "setting": "[2]; 48 hours, dose 10.0 μM", "result": 399}, {"measurement": "Activity, Score", "setting": "[2]; 48 hours, dose 50.0 μM", "result": "5 (>90%)"}, {"measurement": "Activity, Mean", "setting": "[2]; 48 hours, dose 50.0 μM", "result": 236}, {"measurement": "Activity, Score", "setting": "[2]; 72 hours, dose 0.1 μM", "result": "3 (>40%-≤70%)"}, {"measurement": "Activity, Mean", "setting": "[2]; 72 hours, dose 0.1 μM", "result": 2940}, {"measurement": "Activity, Score", "setting": "[2]; 72 hours, dose 1.0 μM", "result": "4 (>70%-≤90%)"}, {"measurement": "Activity, Mean", "setting": "[2]; 72 hours, dose 1.0 μM", "result": 1272}, {"measurement": "Activity, Score", "setting": "[2]; 72 hours, dose 10.0 μM", "result": "5 (>90%)"}, {"measurement": "Activity, Mean", "setting": "[2]; 72 hours, dose 10.0 μM", "result": 446}, {"measurement": "Activity, Score", "setting": "[2]; 72 hours, dose 50.0 μM", "result": "5 (>90%)"}, {"measurement": "Activity, Mean", "setting": "[2]; 72 hours, dose 50.0 μM", "result": 230}, {"measurement": "inhibition at 0.1 µM", "setting": "[2]; 24 hours, dose 0.1 μM", "result": 78.4, "unit": "%"}, {"measurement": "inhibition at 1 µM", "setting": "[2]; 24 hours, dose 1.0 μM", "result": 95.2, "unit": "%"}, {"measurement": "inhibition at 10 µM", "setting": "[2]; 24 hours, dose 10.0 μM", "result": 95.7, "unit": "%"}, {"measurement": "inhibition at 50 µM", "setting": "[2]; 24 hours, dose 50.0 μM", "result": 92.7, "unit": "%"}, {"measurement": "inhibition at 0.1 µM", "setting": "[2]; 48 hours, dose 0.1 μM", "result": 60.1, "unit": "%"}, {"measurement": "inhibition at 1 µM", "setting": "[2]; 48 hours, dose 1.0 μM", "result": 95.8, "unit": "%"}, {"measurement": "inhibition at 10 µM", "setting": "[2]; 48 hours, dose 10.0 μM", "result": 97.7, "unit": "%"}, {"measurement": "inhibition at 50 µM", "setting": "[2]; 48 hours, dose 50.0 μM", "result": 98.6, "unit": "%"}, {"measurement": "inhibition at 10 µM", "setting": "[2]; 72 hours, dose 10.0 μM", "result": 93.8, "unit": "%"}, {"measurement": "inhibition at 50 µM", "setting": "[2]; 72 hours, dose 50.0 μM", "result": 96.8, "unit": "%"}]}
